What was measured:
[1] = Solubility of dye to organic solvent; format: physicochemical; details: 50° C., mass % of the dye to the mass of the entire solution; for Solubility to organic solvent: MIBK: methyl isobutyl ketone
Experimental: Regarding the dyes (A11-1) to (A11-10) and (A11-20) to (A11-27) obtained above, solubility to organic solvent was evaluated as follows.
Three kinds of solvents, cyclohexanone, methyl isobutyl ketone (MIBK), toluene, were used as the organic solvent in the solubility test. Note that in Table 3, % is mass % of the dye to the mass of the entire solution. Further, the temperature of each organic solvent in the solubility test was 50° C.

[2] = Absorption characteristics: transmission spectrum of near-infrared absorbing layer of NIR filter (UV-visible spectrophotometer); format: physicochemical
Experimental: Further, the transmittance of the near-infrared absorbing layer can be measured by using an ultraviolet visible light spectrophotometer. For example, when the near-infrared absorbing layer is provided on a glass substrate, the transmittance is calculated by subtracting the transmittance of only the glass substrate. Note that the transmittance of light of the near-infrared absorbing layer refers to, unless otherwise stated, a ratio to light incident from a direction orthogonal to a main surface of a sample, the ratio of this light traveling straight inside the sample and transmitted to an opposite side. Further, when the transmittance is measured by making light incident from a direction other than the direction orthogonal to the main surface of the sample in the measurement of transmittance of light, an angle made by a straight line indicating the direction of the incident light to a line orthogonal to the main surface is called an incident angle.
In the condition (ii-3), the value calculated by nd(B)×(λa−λc) (hereinafter, this value may also be described as “Is value”) is a value to be an index indicating steepness of the absorption curve in the vicinity of the boundary between the visible light region and the near-infrared region with respect to a transmission spectrum of the near-infrared absorbing layer. When this value is 115 or less, the absorption curve in the vicinity of the boundary between the visible light region and the near-infrared region is steep with respect to the near-infrared absorbing layer, which can be said as preferable for the NIR filter.
That is, with respect to the transmission spectrum of the near-infrared absorbing layer, the smaller the difference (λa−λc) between the shortest wavelength λa with transmittance of 1% in the region of 650 nm to 800 nm and the wavelength λc with transmittance of 70% on a shorter wavelength side than the λa, the steeper the absorption curve in the vicinity of the boundary between the visible light region and the near-infrared region. Here, λa−λc also depends on a wavelength width having transmittance of 1% or less (λb−λa; λb is the longest wavelength with transmittance of 1% in the wavelength region of 650 nm to 800 nm). Accordingly, in order to compare and evaluate the steepness of the absorption curve in the above region of the transmission spectrum of the near-infrared absorbing layer, λb−λa is fixed to 30 nm. That is, λb−λa of the near-infrared absorbing layer which the present filter has is not limited to 30 nm.
Further, in the Is value, (λa−λc) is multiplied by the refractive index nd(B) of the transparent resin (B) contained in the near-infrared absorbing layer as a coefficient. This is to standardize the difference in steepness among resins.
Regarding transmittance (%/nm) of the NIR filters 1 to 109 obtained above, transmission spectra were measured and calculated by using an ultraviolet visible light spectrophotometer (U-4100 type spectrophotometer made by Hitachi High-Technologies Corporation). Analysis results of transmission spectra of the near-infrared absorbing layers which the NIR filters have are presented in Table 4, Table 5 and Table 6 for the NIR filters 1 to 25, 26 to 51, 52 to 75, respectively, and are presented in Table 7 and Table 8 for the NIR filters 76 to 94, 95 to 109, respectively. In Table 4 to Table 8, the ratios (parts by mass) of dyes to 100 parts by mass of the transparent resin (B) and film thicknesses of the near-infrared absorbing layers are described together.
Further, conditions of preferred transmission spectra of the near-infrared absorbing layers in the present filter and Is values obtained by the formula: nd(B)×(λa-λc) described in above (ii-3) are described in Table 4 to Table 8 together with λa in the condition (ii-1) and λb-λa in the condition (ii-2). Note that values described in Table 4 to Table 8 are values obtained by subtracting transmittance of a glass plate from transmittance of an NIR filter. […]

[3] = transparent resin acrylic resin BR50, nd(B) 1.56, film thickness 2.3 μm
[4] = transparent resin polycarbonate EP5000, nd(B) 1.63, film thickness 2.4 μm
[5] = transparent resin polycarbonate SP3810, nd(B) 1.63, film thickness 1.0 μm
[6] = transparent resin polycarbonate SP3810, nd(B) 1.63, film thickness 2.8 μm

CCCC(CCC)C(=O)Nc1cc2c(cc1C1=C([O-])C(=c3cc4c(cc3NC(=O)C(CCC)CCC)=[N+](C)C(C)C4(C)C)C1=O)C(C)(C)C(C)N2C (stereo not drawn) [Example A11-1]
Solubility to organic solvent: Cyclohexanone [1]: 10%< mass %
Solubility to organic solvent: MIBK [1]: 2.50% mass %
Solubility to organic solvent: Toluene [1]: 10%< mass %
430 nm to 600 nm Average transmittance [2, 3]: 95.1%
Is value (nd(B)×(λa-λc)) [2, 3]: 110.9
λa [2, 3]: 689 nm
λa − λc [2, 3]: 71 nm
λb [2, 3]: 719 nm
λb − λa [2, 3]: 30 nm
λc [2, 3]: 618 nm
λmax [2, 3]: 706 nm
430 nm to 600 nm Average transmittance [2, 4]: 96.5%
Is value (nd(B)×(λa-λc)) [2, 4]: 111.0
λa [2, 4]: 694 nm
λa − λc [2, 4]: 68 nm
λb [2, 4]: 724 nm
λb − λa [2, 4]: 30 nm
λc [2, 4]: 626 nm
λmax [2, 4]: 711 nm
430 nm to 600 nm Average transmittance [2, 5]: 97.3%
Is value (nd(B)×(λa-λc)) [2, 5]: 112.8
λa [2, 5]: 694 nm
λa − λc [2, 5]: 69 nm
λb [2, 5]: 724 nm
λb − λa [2, 5]: 30 nm
λc [2, 5]: 625 nm
λmax [2, 5]: 706 nm
430 nm to 600 nm Average transmittance [2, 6]: 96%
Is value (nd(B)×(λa-λc)) [2, 6]: 112.8
λa [2, 6]: 695 nm
λa − λc [2, 6]: 69 nm
λb [2, 6]: 725 nm
λb − λa [2, 6]: 30 nm
λc [2, 6]: 626 nm
λmax [2, 6]: 711 nm

CCCCCCCCCC(CCCCCCC)C(=O)Nc1cc2c(cc1C1=C([O-])C(=c3cc4c(cc3NC(=O)C(CCCCCCC)CCCCCCCCC)=[N+](C)C(C)C4(C)C)C1=O)C(C)(C)C(C)N2C (stereo not drawn) [Example A11-3]
Solubility to organic solvent: Cyclohexanone [1]: 10%< mass %
Solubility to organic solvent: MIBK [1]: 10%< mass %
Solubility to organic solvent: Toluene [1]: 10%< mass %

CCCCC(CC)C(=O)Nc1cc2c(cc1C1=C([O-])C(=c3cc4c(cc3NC(=O)C(CC)CCCC)=[N+](CC)C(C)C4(C)C)C1=O)C(C)(C)C(C)N2CC (stereo not drawn) [Example A11-5]
Solubility to organic solvent: Cyclohexanone [1]: 10%< mass %
Solubility to organic solvent: MIBK [1]: 10%< mass %
Solubility to organic solvent: Toluene [1]: 10%< mass %

CCCCC(CC)C(=O)Nc1cc2c(cc1C1=C([O-])C(=c3cc4c(cc3NC(=O)C(CC)CCCC)=[N+](CCC)C(C)C4(C)C)C1=O)C(C)(C)C(C)N2CCC (stereo not drawn) [Example A11-6]
Solubility to organic solvent: Cyclohexanone [1]: 10%< mass %
Solubility to organic solvent: MIBK [1]: 10%< mass %
Solubility to organic solvent: Toluene [1]: 10%< mass %

CCN1c2cc(NC(=O)C(C)(C)CCCOc3cc(C)ccc3C)c(C3=C([O-])C(=c4cc5c(cc4NC(=O)C(C)(C)CCCOc4cc(C)ccc4C)=[N+](CC)C(C)C5(C)C)C3=O)cc2C(C)(C)C1C (stereo not drawn) [Example A11-8]
Solubility to organic solvent: Cyclohexanone [1]: 10%< mass %
Solubility to organic solvent: MIBK [1]: 10%< mass %
Solubility to organic solvent: Toluene [1]: 10%< mass %

CCCC(C)C(=O)Nc1cc2c(cc1C1=C([O-])C(=c3cc4c(cc3NC(=O)C(C)CCC)=[N+](C)C(C)C4(C)C)C1=O)C(C)(C)C(C)N2C (stereo not drawn) [Example A11-10]
Solubility to organic solvent: Cyclohexanone [1]: 10%< mass %
Solubility to organic solvent: MIBK [1]: 1.00% mass %
Solubility to organic solvent: Toluene [1]: 3.00% mass %

Cc1ccc(C)c(OCCCC(C)(C)C(=O)Nc2cc3c(cc2C2=C([O-])C(=c4cc5c(cc4NC(=O)C(C)(C)CCCOc4cc(C)ccc4C)=[N+](C)C(C)C5(C)C)C2=O)C(C)(C)C(C)N3C)c1 (stereo not drawn) [Example A11-13]
430 nm to 600 nm Average transmittance [2, 3]: 94.8%
Is value (nd(B)×(λa-λc)) [2, 3]: 110.9
λa [2, 3]: 683 nm
λa − λc [2, 3]: 71 nm
λb [2, 3]: 713 nm
λb − λa [2, 3]: 30 nm
λc [2, 3]: 612 nm
λmax [2, 3]: 700 nm
430 nm to 600 nm Average transmittance [2, 4]: 96.1%
Is value (nd(B)×(λa-λc)) [2, 4]: 111.0
λa [2, 4]: 689 nm
λa − λc [2, 4]: 68 nm
λb [2, 4]: 719 nm
λb − λa [2, 4]: 30 nm
λc [2, 4]: 621 nm
λmax [2, 4]: 705 nm
430 nm to 600 nm Average transmittance [2, 5]: 97.3%
Is value (nd(B)×(λa-λc)) [2, 5]: 112.8
λa [2, 5]: 689 nm
λa − λc [2, 5]: 69 nm
λb [2, 5]: 719 nm
λb − λa [2, 5]: 30 nm
λc [2, 5]: 620 nm
λmax [2, 5]: 700 nm
430 nm to 600 nm Average transmittance [2, 6]: 95.1%
Is value (nd(B)×(λa-λc)) [2, 6]: 112.8
λa [2, 6]: 689 nm
λa − λc [2, 6]: 69 nm
λb [2, 6]: 719 nm
λb − λa [2, 6]: 30 nm
λc [2, 6]: 620 nm
λmax [2, 6]: 705 nm

CCCC(C)(C)C(=O)Nc1cc2c(cc1C1=C([O-])C(=c3cc4c(cc3NC(=O)C(C)(C)CCC)=[N+](C)C(C)C4(C)C)C1=O)C(C)(C)C(C)N2C (stereo not drawn) [Example A11-14]
430 nm to 600 nm Average transmittance [2, 3]: 94.7%
Is value (nd(B)×(λa-λc)) [2, 3]: 110.9
λa [2, 3]: 684 nm
λa − λc [2, 3]: 71 nm
λb [2, 3]: 714 nm
λb − λa [2, 3]: 30 nm
λc [2, 3]: 613 nm
λmax [2, 3]: 700 nm
430 nm to 600 nm Average transmittance [2, 4]: 95.5%
Is value (nd(B)×(λa-λc)) [2, 4]: 112.6
λa [2, 4]: 689 nm
λa − λc [2, 4]: 69 nm
λb [2, 4]: 719 nm
λb − λa [2, 4]: 30 nm
λc [2, 4]: 620 nm
λmax [2, 4]: 705 nm
430 nm to 600 nm Average transmittance [2, 5]: 97.1%
Is value (nd(B)×(λa-λc)) [2, 5]: 112.8
λa [2, 5]: 689 nm
λa − λc [2, 5]: 69 nm
λb [2, 5]: 719 nm
λb − λa [2, 5]: 30 nm
λc [2, 5]: 620 nm
λmax [2, 5]: 700 nm
430 nm to 600 nm Average transmittance [2, 6]: 95.6%
Is value (nd(B)×(λa-λc)) [2, 6]: 111.2
λa [2, 6]: 689 nm
λa − λc [2, 6]: 68 nm
λb [2, 6]: 719 nm
λb − λa [2, 6]: 30 nm
λc [2, 6]: 621 nm
λmax [2, 6]: 705 nm

CCCC(=O)Nc1cc2c(cc1C1=C([O-])C(=c3cc4c(cc3NC(=O)CCC)=[N+](C)C(C)C4(C)C)C1=O)C(C)(C)C(C)N2C (stereo not drawn) [Example A11-21, reference compound]
Solubility to organic solvent: Cyclohexanone [1]: <1.0% mass %
Solubility to organic solvent: MIBK [1]: <1.0% mass %
Solubility to organic solvent: Toluene [1]: <1.0% mass %

CCCCCCC(=O)Nc1cc2c(cc1C1=C([O-])C(=c3cc4c(cc3NC(=O)CCCCCC)=[N+](C)C(C)C4(C)C)C1=O)C(C)(C)C(C)N2C (stereo not drawn) [Example A11-23, reference compound]
Solubility to organic solvent: Cyclohexanone [1]: 2.50% mass %
Solubility to organic solvent: MIBK [1]: <1.0% mass %
Solubility to organic solvent: Toluene [1]: 2.50% mass %

CC(C)C(=O)Nc1cc2c(cc1C1=C([O-])C(=c3cc4c(cc3NC(=O)C(C)C)=[N+](C)C(C)C4(C)C)C1=O)C(C)(C)C(C)N2C (stereo not drawn) [Example A11-26, reference compound]
Solubility to organic solvent: Cyclohexanone [1]: <1.0% mass %
Solubility to organic solvent: MIBK [1]: <1.0% mass %
Solubility to organic solvent: Toluene [1]: <1.0% mass %
